Here are results for six molecules from patent US5364631A, “Tocopherol-based pharmaceutical systems” (The Liposome Company, Inc., priority 1993, dated 1994).

The conditions of data set [1]: cited from earlier work.
The nature of data set [2]: freeze fracture electron microscopy / appearance of THS bilayers, effect of pH. Format: physicochemical. The procedure: Characterizing the pH-dependent polymorphic nature of the THS is of importance in designing drug delivery systems comprising THS.
An aliquot (0.1-0.3 ul) of the 10% THS vesicle specimen was sandwiched between a pair of Balzers (Nashua, NH) copper support plates and rapidly plunged from 23° C. into liquid propane. Samples were fractured and replicated on a double replicating device in a Balzers freeze-fracture unit at a vacuum of 2×10^-6 mbar or better and at -115° C. Replicas were floated off in 3N HNO3, followed by washing in a graded series of Chlorox solutions. These were finally cleaned in distilled water and picked up on 300 Hex mesh copper grids (Polysciences, PA). Replicas were viewed on a Philips 300 electron microscope at a magnification of 22,000 times.

A short description of data set [3]: stabilization of THS into the bilayer phase at acidic pH (detergent/surfactant screening).
Text: Stabilizers are defined as compounds which allow the formation and/or maintenance of the bilayer state of d-alpha-tocopherol acid succinate based liposomes in an acidic pH environment.
For data set [4] the following is noted: cited from earlier work. This is another data set of the same source.

As to `Cc1c(C)c2c(c(C)c1OC(=O)CCC(=O)O)CC[C@@](C)(CCC[C@H](C)CCC[C@H](C)CCCC(C)C)O2` [THS, d-alpha-tocopherol acid succinate], the “pH range in which aqueous suspensions are in the bilayer phase” value in data set [1] (aqueous suspension) is 6.0-9.0 pH. Moreover, the “phase formed on lowering the pH below about 6.0 or introducing divalent cations” value in data set [1] (pH below about 6.0 or Mg++ or Ca++) is “produces vesicle aggregation and fusion, and induces hexagonal phase (hexII) formation”. In addition, the “precipitation upon lowering the pH” value in data set [2] (lowered pH, no stabilizer) is recorded as “precipitates resembling hexII phase lipid are formed”. Moreover, the “vesicle morphology by freeze fracture electron microscopy” value in data set [2] (pH 7.0) was “heterogenous population of multilamellar and unilamellar vesicles”.

As for `CCCCCCCCCCCCCCCCCC(=O)OCC(O)CO` (centres unmarked) [glycerol monostearate], the “stabilization of THS into the bilayer phase” value (shortened to “stabilization”) in data set [3] was “do not stabilize the preparations”.

In the case of `CC[C@@H]1C(=O)OC[C@@H]1Cc1cncn1C` [pilocarpine], in data set [4] (high pH, base-catalyzed hydrolysis), the “chemical stability at high pH” value is on record as “unstable at high pH”. In addition, the “chemical stability at lower pH” value in data set [4] (lower pH (protonated)) is recorded as “more stable”. In addition, the “chemical stability in pilocarpine and THS mixtures” value in data set [4] (pH values around 7.0) was “chemically unstable”.

For the molecule `Cc1c(C)c2c(c(C)c1OC(=O)CCC(=O)O)CCC(C)(CCCC(C)CCCC(C)CCCC(C)C)O2` (centres unmarked) [t-THS, tris(hydroxymethyl)aminomethane)-tocopherol hemisuccinate], the “trapping efficiency of closed multilamellar vesicles” value in data set [1] (physiological pH) is given as “high trapping efficiencies”.

In the case of sorbitan monolaurate, the “stabilization” value in data set [3] was “do not stabilize the preparations”.

As for sorbitan monopalmitate, the “stabilization” value in data set [3] is on record as “do not stabilize the preparations”.
